Test results as given in patent US20250339409A1, “USES OF PAN BET INHIBITORS” (VYNE THERAPEUTICS INC., priority 2021, published 2025).
Where “and” joins values, the source holds several entries; their conditions need not be identical. Equal values may be shown once.

How the values were obtained:
hydroxyproline = assay: Bleomycin mice: hydroxyproline content of lung tissue (colorimetric assay); format: in vivo, C57BL/6 male mice; conditions: for Mean Diff., Hydroxyproline Level of Lung, Group 2 Bleo/Veh vs. BETi1 group: One Way ANOVA, Dunnett's; for Mean Diff., Hydroxyproline Level of Lung, Group 2 Bleo/Veh vs. BETi1 group / Mean 2 (group mean), Hydroxyproline Level of Lung: in µg/mg
Protocol: The left lobe of lung tissue is collected, and snap frozen for hydroxyproline levels analysis. Hydroxyproline (4-hydroxyproline, Hyp) is a common nonproteinogenic amino acid. Hydroxyproline in tissue hydrolysates is an indirect measure of the amount of collagen present. Hydroxyproline content of lung tissue is measured by colorimetric assay.

[1] = tested on: bleomycin induced pulmonary fibrosis; assay: Bleomycin induced pulmonary fibrosis in mice, nebulized treatment: body weight, weight of whole lung, survival; format: in vivo; conditions: for Predicted (LS) mean diff., % Change Body Weight, Group 2 Bleo/Veh vs. BETi1 group: Baseline, Two Way ANOVA
Protocol: Bleomycin, a […], which acts inter alia by induction of DNA strand breaks.
The Bleomycin induced pulmonary fibrosis in a murine model is used to assess anti-fibrotic and/or anti-inflammatory properties of BETi1 formulations at three concentrations. Fifty C57BL/6 male mice aged 6 to 7 weeks and weighing between 25-30 grams are randomized into five treatment groups (10 mice each): (a) bleomycin induced mice treated with BETi1 at three concentrations (0.06 mg/mL, 0.6 mg/mL and 3 mg/mL); (b) bleomycin induced mice treated with vehicle (control for active) and (c) uninduced mice treated with vehicle (sham) (control for disease).
To generate the morphological and functional aspects of PF, 50 uL bleomycin sulfate in saline per mouse is intranasally dosed on Day 0 (other than for group 1 sham receiving saline). The bleomycin IU conversion to enzyme units (U) is approximately 2 U/mg. For delivery of 4 U/kg in 50 μL, a solution of 2 U/ml (for 25 g mouse) is prepared in 0.9% NaCl.
5 ml of BETi1 solutions at 3 doses, or vehicle and bleomycin concomitantly are delivered once daily for 21 days with a nebulizer based aerosol delivery system (eFlow® rapid Nebuliser System) by inhalation for a period which allows the solutions to be nebulized and up to 2 hours per day. A sham group receives vehicle only. Body weights are recorded on days 1, 7, 14, and 21. Mortality and clinical observations are recorded daily.
On day 21, mice are euthanized by cervical dislocation and the whole lung is dissected and weighed. The chest is wet with alcohol and large scissors are used to open the ribcage. The lungs are removed with fine scissors and forceps, rinsed with PBS and patted dry on gauze.
Investigation of the anti-fibrotic properties of BETi1 composition against TGF-β mediated fibrosis was undertaken in a bleomycin induced murine model mimicking IPF in accordance with the protocol set out in Experimental Method R.

[2] = Group 3 Bleo/BETi1 0.06 mg/mL, group mean
[3] = Group 3 Bleo/BETi1 0.06 mg/mL, individual animals

Cn1cc(-c2cccc(O)c2Oc2ccccc2)c2cc[nH]c2c1=O [BETi1]
reduction in hydroxyproline levels (hydroxyproline; 3 mg/mL (group 5)): statistically significant compared to treatment with vehicle | hydroxyproline levels (hydroxyproline; 0.06, 0.6 and 3 mg/mL, vs bleomycin and vehicle): demonstrated a decrease in hydroxyproline levels | Hydroxyproline Level of Lung, Mean (hydroxyproline; Group 3 Bleo/BETi1 0.06 mg/mL): 0.2248 μg/mg tissue | Hydroxyproline Level of Lung, individual animals (hydroxyproline; Group 3 Bleo/BETi1 0.06 mg/mL): 0.1154 μg/mg tissue and 0.2842 μg/mg tissue and 0.3149 μg/mg tissue and 0.2968 μg/mg tissue and 0.3372 μg/mg tissue and 0.1322 μg/mg tissue and 0.1196 μg/mg tissue and 0.1977 μg/mg tissue | Mean Diff., Hydroxyproline Level of Lung, Group 2 Bleo/Veh vs. BETi1 group (hydroxyproline; Group 3 Bleo/BETi1 0.06 mg/mL): 0.08927 | Mean 2 (group mean), Hydroxyproline Level of Lung (hydroxyproline; Group 3 Bleo/BETi1 0.06 mg/mL): 0.2248 | Hydroxyproline Level of Lung, Mean (hydroxyproline; Group 4 Bleo/BETi1 0.6 mg/mL): 0.2535 μg/mg tissue | Hydroxyproline Level of Lung, individual animals (hydroxyproline; Group 4 Bleo/BETi1 0.6 mg/mL): 0.1377 μg/mg tissue and 0.3400 μg/mg tissue and 0.2954 μg/mg tissue and 0.1503 μg/mg tissue and 0.2745 μg/mg tissue and 0.3191 μg/mg tissue and 0.2242 μg/mg tissue and 0.2703 μg/mg tissue and 0.1029 μg/mg tissue and 0.2298 μg/mg tissue and 0.3121 μg/mg tissue and 0.2982 μg/mg tissue and 0.3414 μg/mg tissue | Mean Diff., Hydroxyproline Level of Lung, Group 2 Bleo/Veh vs. BETi1 group (hydroxyproline; Group 4 Bleo/BETi1 0.6 mg/mL): 0.0605 | Mean 2 (group mean), Hydroxyproline Level of Lung (hydroxyproline; Group 4 Bleo/BETi1 0.6 mg/mL): 0.2535 | Hydroxyproline Level of Lung, Mean (hydroxyproline; Group 5 Bleo/BETi1 3 mg/mL): 0.2003 μg/mg tissue | Hydroxyproline Level of Lung, individual animals (hydroxyproline; Group 5 Bleo/BETi1 3 mg/mL): 0.1935 μg/mg tissue and 0.0596 μg/mg tissue and 0.2200 μg/mg tissue and 0.2800 μg/mg tissue and 0.2731 μg/mg tissue and 0.1308 μg/mg tissue and 0.2466 μg/mg tissue and 0.1112 μg/mg tissue and 0.3107 μg/mg tissue and 0.2382 μg/mg tissue and 0.3024 μg/mg tissue and 0.1349 μg/mg tissue and 0.1029 μg/mg tissue | Mean Diff., Hydroxyproline Level of Lung, Group 2 Bleo/Veh vs. BETi1 group (hydroxyproline; Group 5 Bleo/BETi1 3 mg/mL): 0.1137 | Mean 2 (group mean), Hydroxyproline Level of Lung (hydroxyproline; Group 5 Bleo/BETi1 3 mg/mL): 0.2003 | whole lung weight ([1]; 0.06 mg/mL and 0.6 mg/mL, vs bleomycin and vehicle): slight decrease in lung weight | Probability of Survival ([1]; 0.06 mg/mL inhaled, until day 20): 50% | Probability of Survival ([1]; 0.6 mg/mL inhaled, until day 20): 81.3% | Probability of Survival ([1]; 3 mg/mL inhaled, until day 20): 76.5% | Predicted (LS) mean diff., % Change Body Weight, Group 2 Bleo/Veh vs. BETi1 group ([1]; Group 3 Bleo/BETi1 0.06 mg/mL, Dunnett's): 0.0875% | Predicted (LS) mean diff., % Change Body Weight, Group 2 Bleo/Veh vs. BETi1 group ([1]; Group 4 Bleo/BETi1 0.6 mg/mL, Dunnett's): 0.1750% | Predicted (LS) mean diff., % Change Body Weight, Group 2 Bleo/Veh vs. BETi1 group ([1]; Group 5 Bleo/BETi1 3 mg/mL, Dunnett's): 0.1629% | Mean 2 (group mean), Weight of Whole lung ([1]; Group 3 Bleo/BETi1 0.06 mg/mL): 0.2695 | Weight of Whole lung, Mean ([1]; Group 3 Bleo/BETi1 0.06 mg/mL): 0.27 grams | Weight of Whole lung, individual animals ([1]; Group 3 Bleo/BETi1 0.06 mg/mL): 0.32 grams and 0.28 grams and 0.25 grams and 0.27 grams (3×) and 0.30 grams and 0.19 grams | Probability of Survival ([1]; Group 3 Bleo/BETi1 0.06 mg/mL, Day Elapsed 0): 100% | Probability of Survival ([1]; Group 3 Bleo/BETi1 0.06 mg/mL, Day Elapsed 8): 93.75% | Probability of Survival ([1]; Group 3 Bleo/BETi1 0.06 mg/mL, Day Elapsed 9): 81.25% | Probability of Survival ([1]; Group 3 Bleo/BETi1 0.06 mg/mL, Day Elapsed 10): 75% | Probability of Survival ([1]; Group 3 Bleo/BETi1 0.06 mg/mL, Day Elapsed 12): 68.75% | Probability of Survival ([1]; Group 3 Bleo/BETi1 0.06 mg/mL, Day Elapsed 14): 62.5% | Probability of Survival ([1]; Group 3 Bleo/BETi1 0.06 mg/mL, Day Elapsed 18): 56.25% | Probability of Survival ([1]; Group 3 Bleo/BETi1 0.06 mg/mL, Day Elapsed 19): 50% | Probability of Survival ([1]; Group 3 Bleo/BETi1 0.06 mg/mL, Day Elapsed 20): 50% | Mean Diff., Weight of Whole lung, Group 2 Bleo/Veh vs. BETi1 group ([1]; Group 3 Bleo/BETi1 0.06 mg/mL, One Way ANOVA, Dunnett's): 0.01712 | % change in Body Weight Week 1 Compared to Baseline, mean [1, 2]: −22.10% | % change in Body Weight week 2 Compared to Baseline, mean [1, 2]: −19.98% | % change in Body Weight week 3 Compared to Baseline, Mean [1, 2]: −8.83% | % change in Body Weight Week 1 Compared to Baseline [1, 3]: −37.04% and −20.00% and −39.32% and −11.86% and −37.37% and −3.83% and −26.78% and −31.75% and −37.30% and −38.92% and −35.61% and −25.13% and −14.61% and −18.53% and −13.95% and −12.29% | % change in Body Weight week 2 Compared to Baseline [1, 3]: −39.35% and −15.35% and −47.44% and −1.27% and −1.28% and −37.16% and −39.04% and −8.22% and −19.83% and −3.26% and −7.63% | % change in Body Weight week 3 Compared to Baseline [1, 3]: −37.04% and −9.77% and −0.85% and −2.13% and −5.02% and −14.22% and 0.93% and −2.54% | Mean 2 (group mean), Weight of Whole lung ([1]; Group 4 Bleo/BETi1 0.6 mg/mL): 0.2681 | Weight of Whole lung, Mean ([1]; Group 4 Bleo/BETi1 0.6 mg/mL): 0.27 grams | Weight of Whole lung, individual animals ([1]; Group 4 Bleo/BETi1 0.6 mg/mL): 0.13 grams and 0.31 grams and 0.29 grams and 0.32 grams and 0.37 grams and 0.27 grams and 0.20 grams (2×) and 0.33 grams and 0.34 grams (2×) and 0.18 grams and 0.21 grams | Probability of Survival ([1]; Group 4 Bleo/BETi1 0.6 mg/mL, Day Elapsed 0): 100% | Probability of Survival ([1]; Group 4 Bleo/BETi1 0.6 mg/mL, Day Elapsed 10): 87.5% | Probability of Survival ([1]; Group 4 Bleo/BETi1 0.6 mg/mL, Day Elapsed 19): 81.3% | Probability of Survival ([1]; Group 4 Bleo/BETi1 0.6 mg/mL, Day Elapsed 20): 81.3%
